Results on 10 compounds are retold here after ChEMBL document CHEMBL5352393, “Discovery of small-molecule modulators of the secretin receptor: Purmorphamine as novel anti-hypertensive agent” (Eur J Med Chem, 2022).

Activity calls are given as the source filed them. The rule behind the calls is not given here.

As usually defined, the Emax is the size of the effect at its maximum, as opposed to the concentration needed. As a reminder, the EC50 is the concentration that produces a half-maximal response. What is called Cmax is the highest concentration seen after dosing. The term Tmax denotes the time from dosing to the highest level. The term half-life denotes how long it takes for the measured level to halve.

For data set [1], the target named is T1, Secretin receptor (Homo sapiens, UniProt P47872). The experiment in a line: Positive allosteric modulation of SCTR (unknown origin) overexpressed in CHO cells assessed as potentiation of SCT-induced cAMP production by measuring maximal response at 100 uM incubated for 20 mins by Lance cAMP assay relative to control (reference value: 100 %). The class given is functional, cell-based. Particulars: filed as positive allosteric modulator. (Cyclic AMP is a second messenger, typically raised through Gs and lowered through Gi signalling.)

The target in data set [2] is T1, Secretin receptor. The experiment in a line: Negative allosteric modulation of SCTR (unknown origin) overexpressed in CHO cells assessed as decrease in SCT-induced cAMP production by measuring maximal response at 100 uM incubated for 20 mins by Lance cAMP assay relative to control (reference value: 100 %). The class given is functional, cell-based. Particulars: filed as negative allosteric modulator.

Data set [3] deals with Rattus norvegicus. In words: Antihypertensive activity in anesthetized spontaneous hypertensive rat model assessed as reduction in mean arterial blood pressure at 1 mg/kg, po measured within 20 hrs in presence of 0.3 mg/kg Azilsartan relative to control. In kind it is functional. Also noted: scale not given: the % may be the effect or the level left.
Data set [4] has as its target T1, Secretin receptor. In words: Synergistic agonist activity at SCTR (unknown origin) expressed in CHO cells assessed as fold increase in cAMP production at 100 uM incubated for 20 mins in presence of SCT by Lance cAMP assay (reference value: 4.13). The class given is functional, cell-based. Particulars: filed as agonist.
Data set [5] deals with T1, Secretin receptor. In words: Positive allosteric modulation of SCTR (unknown origin) expressed in CHO cells assessed as potentiation of SCT-induced cAMP production by measuring maximal response at 100 uM incubated for 20 mins in presence of 1 uM SCT by Lance cAMP assay (reference value: 100 +/- 0.03%). The class given is functional, cell-based. Particulars: filed as positive allosteric modulator.

In data set [6] the target is T1, Secretin receptor. The experiment in a line: Positive allosteric modulation of SCTR (unknown origin) expressed in CHO cells assessed as potentiation of SCT-induced cAMP production by measuring maximal response at 10 uM incubated for 20 mins in presence of 1 uM SCT by Lance cAMP assay (reference value: 100 +/- 0.03%). In kind it is functional, cell-based. Particulars: filed as positive allosteric modulator.

Data set [7] deals with T1, Secretin receptor. The experiment in a line: Positive allosteric modulation of SCTR (unknown origin) expressed in CHO cells assessed as potentiation of SCT-induced cAMP production by measuring maximal response at 1 uM incubated for 20 mins in presence of 1 uM SCT by Lance cAMP assay (reference value: 100 +/- 0.03%). The class given is functional, cell-based. Particulars: filed as positive allosteric modulator.

Data set [8] concerns the target T1, Secretin receptor. In words: Agonist activity at SCTR (unknown origin) expressed in CHO cells assessed as increase in cAMP production incubated for 20 mins Lance cAMP assay. In kind it is functional, cell-based.
Data set [9] deals with T1, Secretin receptor. The experiment in a line: Agonist activity at SCTR (unknown origin) expressed in CHO cells assessed as increase in cAMP production by measuring maximal response incubated for 20 mins Lance cAMP assay relative to control. In kind it is functional, cell-based.
In data set [10] the test system is Rattus norvegicus. The experiment in a line: Antihypertensive activity in anesthetized spontaneous hypertensive rat model assessed as reduction in blood pressure at 0.26 microg/g, iv administered through tail vein and measured after 20 to 50 hrs by DSI telemetric transmitter based analysis. The class given is functional, organism-based. Particulars: dose 0.26 µg/g, time 20-50 hrs.

In data set [11] the test system is Rattus norvegicus. In words: Antihypertensive activity in anesthetized spontaneous hypertensive rat model assessed as reduction in mean arterial blood pressure at 0.26 microg/g, iv administered through tail vein and measured after 20 to 50 hrs by DSI telemetric transmitter based analysis relative to control. The class given is functional. Also noted: scale not given: the % may be the effect or the level left. Particulars: dose 0.26 µg/g, time 20-50 hrs.

The test system of data set [12] is Rattus norvegicus. In words: Antihypertensive activity in anesthetized spontaneous hypertensive rat model assessed as reduction in mean arterial blood pressure at 30 mg/kg, po measured after 15 hrs relative to control. In kind it is functional. Set-up: scale not given: the % may be the effect or the level left.
The test system of data set [13] is Rattus norvegicus. In words: Antihypertensive activity in anesthetized spontaneous hypertensive rat model assessed as reduction in mean arterial blood pressure at 50 mg/kg, po measured after 15 hrs relative to control. In kind it is functional. Set-up: scale not given: the % may be the effect or the level left.
The nature of data set [14]: Cmax in C57 mouse blood at 1000 mg/kg, po administered via gavage measured upto 24 hrs by LC-MS/MS analysis. The class given is ADME, organism-based. Also noted: time < 24 hrs, dose 1000 mg/kg, route po.
A short description of data set [15]: Tmax in C57 mouse blood at 1000 mg/kg, po administered via gavage measured upto 24 hrs by LC-MS/MS analysis. In kind it is ADME, organism-based.
Data set [16] can be described thus: Drug concentration in C57 mouse blood at 1000 mg/kg, po administered via gavage measured at 6 hrs by LC-MS/MS analysis. The class given is ADME, organism-based. Particulars: read-out: Ct.
Data set [17] can be described thus: Drug concentration in C57 mouse blood at 1000 mg/kg, po administered via gavage measured after 12 hrs by LC-MS/MS analysis. The class given is ADME, organism-based. Particulars: read-out: Ct.
Data set [18] is described as follows: Drug concentration in C57 mouse blood at 1000 mg/kg, po administered via gavage measured at 24 hrs by LC-MS/MS analysis. Particulars: read-out: Ct. The class given is ADME, organism-based.
Data set [19] is described as follows: Half life in C57 mouse blood at 1000 mg/kg, po administered via gavage measured upto 24 hrs by LC-MS/MS analysis. In kind it is ADME, organism-based.

T1 sequence (P47872 whole entry): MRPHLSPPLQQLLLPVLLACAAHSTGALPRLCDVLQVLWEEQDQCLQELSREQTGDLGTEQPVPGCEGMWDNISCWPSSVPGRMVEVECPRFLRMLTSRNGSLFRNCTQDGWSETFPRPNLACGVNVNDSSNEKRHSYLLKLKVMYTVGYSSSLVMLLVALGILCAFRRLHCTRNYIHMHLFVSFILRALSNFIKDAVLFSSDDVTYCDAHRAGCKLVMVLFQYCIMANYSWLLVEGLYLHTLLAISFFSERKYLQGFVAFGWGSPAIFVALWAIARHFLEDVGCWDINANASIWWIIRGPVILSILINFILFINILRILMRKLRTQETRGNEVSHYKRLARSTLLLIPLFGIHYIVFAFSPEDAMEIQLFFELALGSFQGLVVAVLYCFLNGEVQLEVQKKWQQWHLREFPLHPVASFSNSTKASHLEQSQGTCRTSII

For `Oc1ccc2c(Oc3nc(Nc4ccc(N5CCOCC5)cc4)c4ncn(C5CCCCC5)c4n3)cccc2c1`, the Emax on Secretin receptor [1] was 146%.
On the same count and under the same terms, for `OC1CCN(c2ccc(Nc3nc(Oc4cccc5ccccc45)nc4c3ncn4C3CCCCC3)cc2)CC1` the value was 166%.
For `c1ccc(-c2ccc(Nc3nc(Oc4cccc5ccccc45)nc4c3ncn4C3CCCCC3)cc2)cc1`, the Emax at Secretin receptor [2] turned out to be 58.8%.
Consider `Oc1cc(N2CCOCC2)ccc1Nc1nc(Oc2cccc3ccccc23)nc2c1ncn2C1CCCCC1`, for which the Emax at Secretin receptor [1] amounted to 181%.
As for `c1ccc2c(Oc3nc(Nc4ccc(-c5cccc6ccccc56)cc4)c4ncn(C5CCCCC5)c4n3)cccc2c1`, the Emax at Secretin receptor [2] amounted to 54.1%.
Take `NS(=O)(=O)c1cc(C2(O)NC(=O)c3ccccc32)ccc1Cl` (stereo unspecified) [CHLORTHALIDONE]: in the data set with Rattus norvegicus [3], the Activity came out at 22.72%.
In the case of `O[C@@H]1CCC[C@H](n2cnc3c(Nc4ccc(N5CCOCC5)cc4)nc(Oc4cccc5ccccc45)nc32)C1`, at Secretin receptor [1], the Emax turned out to be 165%.
Same read-out and setting: for `O=C(O)c1cn(C2CCCCC2)c2nc(Oc3cccc4ccccc34)nc(Nc3ccc(N4CCOCC4)cc3)c12` the value was 157%.
Still for that read-out and setting: for `c1ccc(Oc2ccc(Nc3nc(Oc4cccc5ccccc45)nc4c3ncn4C3CCCCC3)cc2)cc1` the value was 98.8%.
On to `c1ccc2c(Oc3nc(Nc4ccc(N5CCOCC5)cc4)c4ncn(C5CCCCC5)c4n3)cccc2c1` [PURMORPHAMINE], for which the fold change (FC) at Secretin receptor [4] was 6.1. The Emax at Secretin receptor [5] came out at 238%; at Secretin receptor [6] it was 103%; on Secretin receptor [7] it was 117%; at Secretin receptor [9] it was 10.3%; on Secretin receptor [1], 204%. Also, at Secretin receptor [8], the EC50 is 191 µM. In addition, the result in the data set with Rattus norvegicus [10] was Active. The figures for the Activity in the data set on Rattus norvegicus [11], with Rattus norvegicus [12] and in the data set with Rattus norvegicus [13] were around 14%, 10.33% and 7.63%, respectively. The compound further yielded a Cmax in [14] of 647 ng/mL. The Tmax in data set [15] turned out to be 0.5 h. The concentration at 6 h in data set [16] was above 300 ng/mL. Also, the concentration at 12 h in data set [17] was 260 ng/mL. The concentration at 24 h in [18] was found to be 61 ng/mL. Moreover, in data set [19], the half-life was 7.7 h.
